Reference: publication PMC4839570, “Novel Anthra[1,2-c][1,2,5]Thiadiazole-6,11-Diones as Promising Anticancer Lead Compounds: Biological Evaluation, Characterization & Molecular Targets Determination” (PLoS ONE, 2016)
Where two headings read alike, the source gives them in different places.

Key:
HCT-116 = assay: JFCR-39 cytotoxicity screen; type: cell-based
SF-539 = assay: NCI-60 cytotoxicity screen; type: cell-based
U251 = assay: NCI-60 cytotoxicity screen; type: cell-based
SF-268 = assay: JFCR-39 cytotoxicity screen; type: cell-based
NCI-H23 = assay: JFCR-39 cytotoxicity screen; type: cell-based
NCI-H522 = assay: JFCR-39 cytotoxicity screen; type: cell-based
PC-3 = assay: NCI-60 cytotoxicity screen; type: cell-based
TK-10 = assay: NCI-60 cytotoxicity screen; type: cell-based
DMS114 = assay: JFCR-39 cytotoxicity screen; type: cell-based
RPMI-8226 = assay: NCI-60 cytotoxicity screen; type: cell-based
OVCAR-8 [1] = assay: JFCR-39 cytotoxicity screen; type: cell-based
OVCAR-3 = assay: cells; conditions: Homo sapiens, OVCAR-3, read-out: mean log10 of the GI50 values (converted)
KM-12 = assay: JFCR-39 cytotoxicity screen; type: cell-based
MKN74 = assay: JFCR-39 cytotoxicity screen; type: cell-based
EKVX = assay: NCI-60 cytotoxicity screen; type: cell-based
HBC-5 = assay: JFCR-39 cytotoxicity screen; type: cell-based
OVCAR-5 [2] = assay: JFCR-39 cytotoxicity screen; type: cell-based
MKN28 = assay: JFCR-39 cytotoxicity screen; type: cell-based
HCT-15 = assay: JFCR-39 cytotoxicity screen; type: cell-based
[3] = system: NF-κB p65 subunit in OVCAR-3 cells; assay: Western blotting of nuclear and cytosolic fractions; type: cell-based, human; conditions: OVCAR-3 nuclear fraction
Protocol: Treated cells were fractionated into nuclear and cytosolic fractions using the Nuclear/Cytosol fractionation kit (BioVision), separated by electrophoresis in SDS-PAGE gels and transferred to Amersham Hybond-P PVDF Membranes. Membranes were probed with either anti-NF-κB p65 rabbit monoclonal primary antibody [E379] Abcam # ab32536, anti-TATA binding protein (TBP) mouse antibody (1TBP18), or anti-beta Tubulin rabbit antibody [NB600-936]. After washing, membranes were incubated with either goat anti-rabbit IgG H&L (HRP) (ab6721), or rabbit anti-mouse IgG H&L (HRP) (ab6728) secondary antibodies. Membranes were developed using the Immobilon Western chemiluminescent HRP substrate kit. Protein bands were normalized to either the beta Tubulin or TBP bands and quantified using ImageJ software.

M14 = assay: NCI-60 cytotoxicity screen; type: cell-based
RXF-631L = assay: JFCR-39 cytotoxicity screen; type: cell-based
HL-60(TB) = assay: NCI-60 cytotoxicity screen; type: cell-based
MCF-7 = assay: JFCR-39 cytotoxicity screen; type: cell-based
SN12C = assay: NCI-60 cytotoxicity screen; type: cell-based
OVCAR-5 [4] = assay: NCI-60 cytotoxicity screen; type: cell-based
MDA-MB-231 = assay: JFCR-39 cytotoxicity screen; type: cell-based
SR = assay: NCI-60 cytotoxicity screen; type: cell-based
DU-145 = assay: JFCR-39 cytotoxicity screen; type: cell-based
OVCAR-8 [5] = assay: NCI-60 cytotoxicity screen; type: cell-based
[6] = Homo sapiens, read-out: LC50 (the source's name)
[7] = Homo sapiens, Fig 7, read-out: mean log10 of the GI50 values (converted)
[8] = Homo sapiens, five-dose, read-out: GI50
[9] = Homo sapiens, five-dose, read-out: LC50 (the source's name)

With `O=C1c2ccccc2C(=O)c2c1cc(Cl)c1nsnc21` [NSC757963] the TGI (HCT-116) was 4.0 µM, the GI50 (HCT-116; Homo sapiens) was 1.9 µM and the CC50 (HCT-116; [6]) was 8.3 µM. The GI50 (SF-539; [7]) was 9.12 µM, the GI50 (SF-539; [8]) was 8.23 µM and the CC50 (SF-539; [9]) was 50.8 µM. For the same compound, the TGI (SF-539; five-dose) was 21.6 µM, the GI50 (U251; Homo sapiens, U-251, Fig 7, read-out: mean log10 of the GI50 values (converted)) was 2.34 µM and the GI50 (U251; Homo sapiens, U-251, five-dose, read-out: GI50) was 3.29 µM. For the same compound, the CC50 (U251; Homo sapiens, U-251, five-dose, read-out: LC50 (the source's name)) was 32.7 µM, the TGI (U251; five-dose) was 10.4 µM and the TGI (SF-268) was 4.0 µM. It also gave a GI50 (SF-268; Homo sapiens) of 2 µM, a CC50 (SF-268; [6]) of 6.5 µM and a TGI (NCI-H23) of 4.1 µM. It also gave a GI50 (NCI-H23; Homo sapiens) of 1.9 µM, a CC50 (NCI-H23; [6]) of 8.7 µM and a TGI (NCI-H522) of 3.6 µM. The GI50 (NCI-H522; Homo sapiens) was 1.8 µM, the CC50 (NCI-H522; [6]) was 7.3 µM and the GI50 (PC-3; [7]) was 2.57 µM. The GI50 (PC-3; [8]) was 2.85 µM, the CC50 (PC-3; [9]) was > 100 µM and the TGI (PC-3; five-dose) was 30.2 µM. It also gave a GI50 (TK-10; [7]) of 22.9 µM, a GI50 (TK-10; [8]) of 24.1 µM and a CC50 (TK-10; [9]) of 64.1 µM. The TGI (TK-10; five-dose) was 39.3 µM, the TGI (DMS114) was 2.5 µM and the GI50 (DMS114; Homo sapiens, DMS-114) was 1 µM. It also gave a CC50 (DMS114; Homo sapiens, DMS-114, read-out: LC50 (the source's name)) of 6.1 µM, a GI50 (RPMI-8226; [7]) of 2.88 µM and a GI50 (RPMI-8226; [8]) of 3.15 µM. The CC50 (RPMI-8226; [9]) was > 100 µM, the TGI (RPMI-8226; five-dose) was 53.2 µM and the TGI (OVCAR-8 [1]) was 4.8 µM. The GI50 (OVCAR-8 [1]; Homo sapiens) was 2.1 µM, the CC50 (OVCAR-8 [1]; [6]) was > 100 µM and the GI50 (OVCAR-3) was 1.86 µM. The TGI (KM-12) was 8.4 µM, the GI50 (KM-12; Homo sapiens, KM12) was 3 µM and the CC50 (KM-12; Homo sapiens, KM12, read-out: LC50 (the source's name)) was 36 µM. It also gave a TGI (MKN74) of 4.2 µM, a GI50 (MKN74; Homo sapiens, MKN-74) of 2.1 µM and a CC50 (MKN74; Homo sapiens, MKN-74, read-out: LC50 (the source's name)) of 8.4 µM. It also gave a GI50 (EKVX; [7]) of 10.5 µM, a GI50 (EKVX; [8]) of 11 µM and a CC50 (EKVX; [9]) of 48.7 µM. For the same compound, the TGI (EKVX; five-dose) was 23.2 µM, the TGI (HBC-5) was 4.1 µM and the GI50 (HBC-5; Homo sapiens, HBC5) was 2.1 µM. It also gave a CC50 (HBC-5; Homo sapiens, HBC5, read-out: LC50 (the source's name)) of 8.3 µM, a TGI (OVCAR-5 [2]) of 3.0 µM and a GI50 (OVCAR-5 [2]; Homo sapiens) of 1.6 µM. For the same compound, the CC50 (OVCAR-5 [2]; [6]) was 5.5 µM, the TGI (MKN28) was 4.4 µM and the GI50 (MKN28; Homo sapiens, MKN-28) was 2.2 µM. It also gave a CC50 (MKN28; Homo sapiens, MKN-28, read-out: LC50 (the source's name)) of 8.6 µM, a TGI (HCT-15) of 3.9 µM and a GI50 (HCT-15; Homo sapiens) of 1.9 µM. The CC50 (HCT-15; [6]) was 7.9 µM, the “dose of almost complete inhibition of nuclear NF-κB p65 expression” value [3] was 2.4 µM and the GI50 (M14; [7]) was 15.1 µM. For the same compound, the GI50 (M14; [8]) was 17 µM, the CC50 (M14; [9]) was 59.7 µM and the TGI (M14; five-dose) was 31.9 µM. For the same compound, the TGI (RXF-631L) was 3.1 µM, the GI50 (RXF-631L; Homo sapiens) was 1.7 µM and the CC50 (RXF-631L; [6]) was 5.9 µM. For the same compound, the GI50 (HL-60(TB); [7]) was 1.05 µM, the GI50 (HL-60(TB); [8]) was 0.42 µM and the CC50 (HL-60(TB); [9]) was > 100 µM. For the same compound, the TGI (HL-60(TB); five-dose) was 2.22 µM, the TGI (MCF-7) was 3.9 µM and the GI50 (MCF-7; Homo sapiens, MCF7) was 1.8 µM. The CC50 (MCF-7; Homo sapiens, MCF7, read-out: LC50 (the source's name)) was 8 µM, the GI50 (SN12C; [7]) was 2.29 µM and the GI50 (SN12C; [8]) was 3.27 µM. For the same compound, the CC50 (SN12C; [9]) was 36.1 µM, the TGI (SN12C; five-dose) was 13.1 µM and the GI50 (OVCAR-5 [4]; [7]) was 17.4 µM. The GI50 (OVCAR-5 [4]; [8]) was 17.6 µM, the CC50 (OVCAR-5 [4]; [9]) was 56.8 µM and the TGI (OVCAR-5 [4]; five-dose) was 31.6 µM. It also gave a TGI (MDA-MB-231) of 2.9 µM, a GI50 (MDA-MB-231; Homo sapiens) of 1.3 µM and a CC50 (MDA-MB-231; [6]) of 6.4 µM. The GI50 (SR; [7]) was 1.82 µM, the GI50 (SR; [8]) was 2.64 µM and the CC50 (SR; [9]) was > 100 µM. For the same compound, the TGI (SR; five-dose) was >100 µM, the TGI (DU-145) was 6.3 µM and the GI50 (DU-145; Homo sapiens) was 2.5 µM. It also gave a CC50 (DU-145; [6]) of 23 µM, a GI50 (OVCAR-8 [5]; [7]) of 1.32 µM and a GI50 (OVCAR-8 [5]; [8]) of 2.39 µM. For the same compound, the CC50 (OVCAR-8 [5]; [9]) was > 100 µM and the TGI (OVCAR-8 [5]; five-dose) was 5.19 µM.
